Measured values reported in US20020137929A1, “1 - (3-heterocyclylphenyl) isothiourea, -isourea, -guanidine and -amidine herbicidal agents” (Intellectual Property Department, BASF Aktiengesellschaft, priority 1998, published 2002).

Assays:
[1] = test system: ECHORC (Watergrass (Calif.)); assay: Postemergence weed control under flooded paddy conditions; assay type: in vivo, Echinochloa oryzoides; conditions: postemergence weeds
Procedure, shortened: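 Flood-water application, about 0.0313–0.500 kg/ha a.i. in aqueous/acetone 50/50 v/v; water depth 1.5–3 cm throughout. Weeds 3–5 cm, rice 1.5–2.5 leaf. Greenhouse; 0–9 visual rating vs control at 3–4 wk.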

[2] = test system: CYPSE (Flatsedge); assay: Preemergence weed control under flooded paddy conditions; assay type: in vivo, Cyperus serotinus; conditions: rated 3-4 weeks after treatment
Procedure, shortened: (§1)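 Seeds or propagules sown in top 0.5 cm of silt loam soil, flooded 1.5 to 3 cm above surface throughout. Compound in 50/50 v/v aqueous/acetone pipetted into flood water at about 0.0313 to 0.500 kg/ha. Visual 0-9 rating versus control after three to four weeks in greenhouse.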

[3] = test system: IPOHE (Morningglory, Ivyleaf); assay: Postemergence herbicidal evaluation; assay type: in vivo, Ipomoea hederacea; conditions: for IPOHE herbicidal rating: postemergence
Procedure, shortened: (§2)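 Visual 0–9 rating versus control (stand, vigor, malformation, size, chlorosis, overall appearance), taken four to five weeks post-spray. Two-week-old seedlings received roughly 0.0156–0.500 kg/ha active in acetone/water (50/50) with 0.5% TWEEN 20 via nozzle at 40 psi.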

[4] = test system: ECHCG (Barnyardgrass); assay: Preemergence herbicidal evaluation; assay type: in vivo, Echinochloa crus-galli; conditions: rated 4-5 weeks after treatment; for ECHCG rating: preemergence, 0-9 scale
Procedure, shortened: (§3)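 Test compound, dissolved in aqueous acetone, was sprayed over planted soil cups at an equivalent of about 0.0156 to 0.500 kg/ha; seeds had been mixed with potting soil. Greenhouse growth followed, with visual 0-9 scoring of injury at four to five weeks.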

[5] = test system: GLXMAW (Soybean, Williams); assay: Postemergence herbicidal evaluation; assay type: in vivo, Glycine max, (L.) Merr. cv Williams; conditions: for GLXMAW herbicidal rating: postemergence
Procedure, shortened: as §2

[6] = test system: AMBEL (Ragweed, Common); assay: Postemergence herbicidal evaluation; assay type: in vivo, Ambrosia artemisifolia; conditions: for AMBEL herbicidal rating: postemergence
Procedure, shortened: as §2

[7] = test system: SETVI (Foxtail, Green); assay: Preemergence herbicidal evaluation; assay type: in vivo, Setaria viridis; conditions: rated 4-5 weeks after treatment; for SETVI rating: preemergence, 0-9 scale
Procedure, shortened: as §3

[8] = test system: GALAP (Galium); assay: Preemergence herbicidal evaluation; assay type: in vivo, Galium aparine; conditions: rated 4-5 weeks after treatment; for GALAP rating: preemergence, 0-9 scale
Procedure, shortened: as §3

[9] = test system: AMBEL (Ragweed, Common); assay: Preemergence herbicidal evaluation; assay type: in vivo, Ambrosia artemisifolia; conditions: rated 4-5 weeks after treatment; for AMBEL rating: preemergence, 0-9 scale
Procedure, shortened: as §3

[10] = test system: GLXMAW (Soybean, Williams); assay: Preemergence herbicidal evaluation; assay type: in vivo, Glycine max, (L.) Merr. cv Williams; conditions: rated 4-5 weeks after treatment; for GLXMAW rating: preemergence, 0-9 scale
Procedure, shortened: as §3

[11] = test system: ZEAMX (Corn, Field); assay: Postemergence herbicidal evaluation; assay type: in vivo, Zea mays; conditions: for ZEAMX herbicidal rating: postemergence
Procedure, shortened: as §2

[12] = test system: ABUTH (Velvetleaf); assay: Preemergence herbicidal evaluation; assay type: in vivo, Abutilon theophrasti; conditions: rated 4-5 weeks after treatment; for ABUTH rating: preemergence, 0-9 scale
Procedure, shortened: as §3

[13] = test system: CASOB (Sicklepod); assay: Preemergence herbicidal evaluation; assay type: in vivo, Cassia obtusifolia; conditions: rated 4-5 weeks after treatment; for CASOB rating: preemergence, 0-9 scale
Procedure, shortened: as §3

[14] = test system: SAGPY (Arrowhead (Pygmaea)); assay: Preemergence weed control under flooded paddy conditions; assay type: in vivo, Sagittaria pygmaea; conditions: rated 3-4 weeks after treatment
Procedure, shortened: as §1

For `Cn1c(C(F)(F)F)cc(=O)n(-c2cc(N=C3SCC(=O)N3CC(=O)OC(C)(C)C)c(Cl)cc2F)c1=O` [Compound 43, tert-Butyl 2-{{2-chloro-5-[3,6-dihydro-3-methyl-2,6-dioxo-4-(trifluoromethyl)-1(2H)-pyrimidinyl]-4-fluorophenyl}imino}-4-oxo-3-thiazolidineacetate], the “Herbicidal rating ECHORC” value ([1]; rate 0.0313 kg/ha, 3-4 weeks after treatment) was 5.0, the “Herbicidal rating ECHORC” value ([1]; rate 0.0825 kg/ha, 3-4 weeks after treatment) was 6.0 and the “Herbicidal rating ECHORC” value ([1]; rate 0.1250 kg/ha, 3-4 weeks after treatment) was 7.0. For the same compound, the “Herbicidal rating ECHORC” value ([1]; rate 0.2500 kg/ha, 3-4 weeks after treatment) was 9.0, the “Herbicidal rating CYPSE” value ([2]; 0.0313 kg/ha) was 5.0 and the “Herbicidal rating CYPSE” value ([2]; 0.0625 kg/ha) was 5.0. The “Herbicidal rating CYPSE” value ([2]; 0.1250 kg/ha) was 8.0, the “Herbicidal rating CYPSE” value ([2]; 0.2500 kg/ha) was 9.0 and the “Postemergence herbicidal rating IPOHE” value ([3]; Rate 0.0158 kg/ha) was 9.0. For the same compound, the “Postemergence herbicidal rating IPOHE” value ([3]; Rate 0.0315 kg/ha) was 9.0, the “Postemergence herbicidal rating IPOHE” value ([3]; Rate 0.0630 kg/ha) was 9.0 and the “Preemergence herbicidal rating ECHCG” value ([4]; rate 0.0156 kg/ha) was 0.0. The “Preemergence herbicidal rating ECHCG” value ([4]; rate 0.0313 kg/ha) was 0.0, the “Preemergence herbicidal rating ECHCG” value ([4]; rate 0.0625 kg/ha) was 0.0 and the “Preemergence herbicidal rating ECHCG” value ([4]; rate 0.1250 kg/ha) was 0.0. The “Preemergence herbicidal rating ECHCG” value ([4]; rate 0.2500 kg/ha) was 5.0, the “Postemergence herbicidal rating GLXMAW” value ([5]; Rate 0.0158 kg/ha) was 7.5 and the “Postemergence herbicidal rating GLXMAW” value ([5]; Rate 0.0315 kg/ha) was 7.0. The “Postemergence herbicidal rating GLXMAW” value ([5]; Rate 0.0630 kg/ha) was 7.0, the “Postemergence herbicidal rating AMBEL” value ([6]; Rate 0.0158 kg/ha) was 9.0 and the “Postemergence herbicidal rating AMBEL” value ([6]; Rate 0.0315 kg/ha) was 9.0. For the same compound, the “Postemergence herbicidal rating AMBEL” value ([6]; Rate 0.0630 kg/ha) was 9.0, the “Preemergence herbicidal rating SETVI” value ([7]; rate 0.0156 kg/ha) was 0.0 and the “Preemergence herbicidal rating SETVI” value ([7]; rate 0.0313 kg/ha) was 0.0. The “Preemergence herbicidal rating SETVI” value ([7]; rate 0.0625 kg/ha) was 0.0, the “Preemergence herbicidal rating SETVI” value ([7]; rate 0.1250 kg/ha) was 5.0 and the “Preemergence herbicidal rating SETVI” value ([7]; rate 0.2500 kg/ha) was 9.0. The “Preemergence herbicidal rating GALAP” value ([8]; rate 0.0156 kg/ha) was 0.0, the “Preemergence herbicidal rating GALAP” value ([8]; rate 0.0313 kg/ha) was 0.0 and the “Preemergence herbicidal rating GALAP” value ([8]; rate 0.0625 kg/ha) was 0.0. For the same compound, the “Preemergence herbicidal rating GALAP” value ([8]; rate 0.1250 kg/ha) was 9.0, the “Preemergence herbicidal rating GALAP” value ([8]; rate 0.2500 kg/ha) was 9.0 and the “Preemergence herbicidal rating AMBEL” value ([9]; rate 0.0156 kg/ha) was 0.0. The “Preemergence herbicidal rating AMBEL” value ([9]; rate 0.0313 kg/ha) was 0.0, the “Preemergence herbicidal rating AMBEL” value ([9]; rate 0.0625 kg/ha) was 0.0 and the “Preemergence herbicidal rating AMBEL” value ([9]; rate 0.1250 kg/ha) was 3.0. The “Preemergence herbicidal rating AMBEL” value ([9]; rate 0.2500 kg/ha) was 4.0, the “Preemergence herbicidal rating GLXMAW” value ([10]; rate 0.0156 kg/ha) was 0.0 and the “Preemergence herbicidal rating GLXMAW” value ([10]; rate 0.0313 kg/ha) was 0.0. For the same compound, the “Preemergence herbicidal rating GLXMAW” value ([10]; rate 0.0625 kg/ha) was 0.0, the “Preemergence herbicidal rating GLXMAW” value ([10]; rate 0.1250 kg/ha) was 0.0 and the “Preemergence herbicidal rating GLXMAW” value ([10]; rate 0.2500 kg/ha) was 2.0. The “Postemergence herbicidal rating ZEAMX” value ([11]; Rate 0.0158 kg/ha) was 4.5, the “Postemergence herbicidal rating ZEAMX” value ([11]; Rate 0.0315 kg/ha) was 5.0 and the “Postemergence herbicidal rating ZEAMX” value ([11]; Rate 0.0630 kg/ha) was 5.5. The “Preemergence herbicidal rating ABUTH” value ([12]; rate 0.0156 kg/ha) was 9.0, the “Preemergence herbicidal rating ABUTH” value ([12]; rate 0.0313 kg/ha) was 9.0 and the “Preemergence herbicidal rating ABUTH” value ([12]; rate 0.0625 kg/ha) was 9.0. The “Preemergence herbicidal rating ABUTH” value ([12]; rate 0.1250 kg/ha) was 9.0, the “Preemergence herbicidal rating ABUTH” value ([12]; rate 0.2500 kg/ha) was 9.0 and the “Preemergence herbicidal rating CASOB” value ([13]; rate 0.0156 kg/ha) was 0.0. The “Preemergence herbicidal rating CASOB” value ([13]; rate 0.0313 kg/ha) was 0.0, the “Preemergence herbicidal rating CASOB” value ([13]; rate 0.0625 kg/ha) was 0.0 and the “Preemergence herbicidal rating CASOB” value ([13]; rate 0.1250 kg/ha) was 8.0. The “Preemergence herbicidal rating CASOB” value ([13]; rate 0.2500 kg/ha) was 9.0, the “Herbicidal rating SAGPY” value ([14]; 0.0313 kg/ha) was 7.0 and the “Herbicidal rating SAGPY” value ([14]; 0.0625 kg/ha) was 7.0. For the same compound, the “Herbicidal rating SAGPY” value ([14]; 0.1250 kg/ha) was 7.0 and the “Herbicidal rating SAGPY” value ([14]; 0.2500 kg/ha) was 9.0.

With `CN1C(=O)C(CC(=O)OCCF)SC1=Nc1cc(-n2c(=O)cc(C(F)(F)F)n(C)c2=O)c(F)cc1Cl` (stereo not drawn) [Compound 93, 2-Fluoroethyl 2-{{2-chloro-5-[3,6-dihydro-3-methyl-2,6-dioxo-4-(trifluoromethyl)-1(2H)-pyrimidinyl]-4-fluorophenyl}imino}-3-methyl-4-oxo-5-thiazolidineacetate] the “Herbicidal rating ECHORC” value ([1]; Rate 0.0313 kg/ha, rated 3 to 4 weeks after treatment) was 0.0, the “Herbicidal rating ECHORC” value ([1]; Rate 0.0625 kg/ha, rated 3 to 4 weeks after treatment) was 3.0 and the “Herbicidal rating ECHORC” value ([1]; Rate 0.1250 kg/ha, rated 3 to 4 weeks after treatment) was 4.0. The “Herbicidal rating ECHORC” value ([1]; Rate 0.2500 kg/ha, rated 3 to 4 weeks after treatment) was 7.0, the “CYPSE herbicidal effect rating” value ([2]; 0.0313 kg/ha) was 0.0 and the “CYPSE herbicidal effect rating” value ([2]; 0.0625 kg/ha) was 0.0. The “CYPSE herbicidal effect rating” value ([2]; 0.1250 kg/ha) was 5.0, the “CYPSE herbicidal effect rating” value ([2]; 0.2500 kg/ha) was 9.0 and the IPOHE herbicidal rating ([3]; rate 0.0158 kg/ha) was 9.0. For the same compound, the IPOHE herbicidal rating ([3]; rate 0.0315 kg/ha) was 9.0, the IPOHE herbicidal rating ([3]; rate 0.0630 kg/ha) was 9.0 and the ECHCG rating ([4]; 0.0313 kg/ha) was 0.0. The ECHCG rating ([4]; 0.0625 kg/ha) was 0.0, the ECHCG rating ([4]; 0.1250 kg/ha) was 0.0 and the ECHCG rating ([4]; 0.2500 kg/ha) was 0.0. The GLXMAW herbicidal rating ([5]; rate 0.0158 kg/ha) was 8.5, the GLXMAW herbicidal rating ([5]; rate 0.0315 kg/ha) was 9.0 and the GLXMAW herbicidal rating ([5]; rate 0.0630 kg/ha) was 9.0. It also gave an AMBEL herbicidal rating ([6]; rate 0.0158 kg/ha) of 9.0, an AMBEL herbicidal rating ([6]; rate 0.0315 kg/ha) of 9.0 and an AMBEL herbicidal rating ([6]; rate 0.0630 kg/ha) of 9.0. The SETVI rating ([7]; 0.0313 kg/ha) was 0.0, the SETVI rating ([7]; 0.0625 kg/ha) was 0.0 and the SETVI rating ([7]; 0.1250 kg/ha) was 0.0. The SETVI rating ([7]; 0.2500 kg/ha) was 9.0, the GALAP rating ([8]; 0.0313 kg/ha) was 0.0 and the GALAP rating ([8]; 0.0625 kg/ha) was 0.0. It also gave a GALAP rating ([8]; 0.1250 kg/ha) of 9.0, a GALAP rating ([8]; 0.2500 kg/ha) of 9.0 and an AMBEL rating ([9]; 0.0313 kg/ha) of 0.0. It also gave an AMBEL rating ([9]; 0.0625 kg/ha) of 0.0, an AMBEL rating ([9]; 0.1250 kg/ha) of 9.0 and an AMBEL rating ([9]; 0.2500 kg/ha) of 9.0. For the same compound, the GLXMAW rating ([10]; 0.0313 kg/ha) was 0.0, the GLXMAW rating ([10]; 0.0625 kg/ha) was 0.0 and the GLXMAW rating ([10]; 0.1250 kg/ha) was 4.0. The GLXMAW rating ([10]; 0.2500 kg/ha) was 8.0, the ZEAMX herbicidal rating ([11]; rate 0.0158 kg/ha) was 7.5 and the ZEAMX herbicidal rating ([11]; rate 0.0315 kg/ha) was 7.5. The ZEAMX herbicidal rating ([11]; rate 0.0630 kg/ha) was 8.0, the ABUTH rating ([12]; 0.0313 kg/ha) was 5.0 and the ABUTH rating ([12]; 0.0625 kg/ha) was 9.0. The ABUTH rating ([12]; 0.1250 kg/ha) was 9.0, the ABUTH rating ([12]; 0.2500 kg/ha) was 9.0 and the CASOB rating ([13]; 0.0313 kg/ha) was 0.0. The CASOB rating ([13]; 0.0625 kg/ha) was 0.0, the CASOB rating ([13]; 0.1250 kg/ha) was 0.0 and the CASOB rating ([13]; 0.2500 kg/ha) was 9.0. For the same compound, the “SAGPY herbicidal effect rating” value ([14]; 0.0313 kg/ha) was 0.0, the “SAGPY herbicidal effect rating” value ([14]; 0.0625 kg/ha) was 0.0 and the “SAGPY herbicidal effect rating” value ([14]; 0.1250 kg/ha) was 3.0. The “SAGPY herbicidal effect rating” value ([14]; 0.2500 kg/ha) was 9.0.
